Source: paper PMC5706701, “Development of a homogenous high-throughput assay for inositol hexakisphosphate kinase 1 activity” (PLoS ONE, 2017)
Counter-ions that a name gives are not always drawn. Like-named read-outs stand apart in the source and are kept apart here.

Molecular target: T1, Human IP6K1 (Homo sapiens, UniProt Q92551)
T1 construct: GST (N, cleaved yes); made in house; host or cells: C43 E. coli, pGEX-6P-2
Assay: IP6K1 high-throughput screen of the Sigma LOPAC (ADP-Glo Max, single point);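 further: final compound concentration 10µM in 5% DMSO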
Type: biochemical

[1] = LOPAC single-point screen, ADP-Glo Max raw signal per well
[2] = LOPAC single-point screen, Z-score against plate average and StDev
[3] = LOPAC single-point screen, Z-score from raw signal with plate average and StDev
[4] = LOPAC single-point screen, ADP-Glo Max luminescence raw signal per well
[5] = LOPAC single-point screen, Z-score relative to plate average and StDev
[6] = Sigma LOPAC single-point screen, ADP-Glo Max raw signal per well
[7] = Sigma LOPAC single-point screen, Z-score from plate average and StDev
[8] = LOPAC single-point screen, Z-score from plate average and StDev

T1 sequence (Q92551 whole entry): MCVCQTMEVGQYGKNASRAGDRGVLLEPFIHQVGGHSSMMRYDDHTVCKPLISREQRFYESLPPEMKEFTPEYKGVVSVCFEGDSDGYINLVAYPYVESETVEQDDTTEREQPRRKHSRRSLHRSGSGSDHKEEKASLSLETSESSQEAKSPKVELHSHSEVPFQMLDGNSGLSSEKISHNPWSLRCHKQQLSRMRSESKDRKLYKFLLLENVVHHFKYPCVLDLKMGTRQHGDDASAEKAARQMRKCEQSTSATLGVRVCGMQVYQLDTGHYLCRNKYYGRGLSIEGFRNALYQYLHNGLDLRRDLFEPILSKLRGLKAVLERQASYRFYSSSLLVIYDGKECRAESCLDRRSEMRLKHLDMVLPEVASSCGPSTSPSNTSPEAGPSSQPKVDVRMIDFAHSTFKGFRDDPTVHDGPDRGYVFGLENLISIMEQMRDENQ

## CCCCCCN(CCCCCC)C(=O)Cc1c(-c2ccc(F)cc2)[nH]c2ccccc12
[1]
  Raw Signal: 56591
[2]
  Z-score: 0.2892

## LY-310,762 hydrochloride
[1]
  Raw Signal: 55045
[2]
  Z-score: 0.1095

## CC1=C(C(=O)O)N2C(=O)[C@@H](NC(=O)[C@H](N)C3=CCC=CC3)[C@H]2SC1 [Cephradine]
[1]
  Raw Signal: 56353
[3]
  Z-score: -0.2748

## O=C(O)/C=C/C(=O)O.O=C(O)/C=C/C(=O)O.O=C(O)/C=C/C(=O)O.O=C1CCCN1CC#CCN1CCCC1.O=C1CCCN1CC#CCN1CCCC1 [Oxotremorine sesquifumarate salt]
[1]
  Raw Signal: 55438
[2]
  Z-score: 0.1755

## CCCN(CCC)CCc1ccc(O)c(O)c1 [Dipropyldopamine hydrobromide]
[4]
  Raw Signal: 52448
[5]
  Z-score: -0.5522

## CCCNC(=O)NS(=O)(=O)c1ccc(Cl)cc1 [Chlorpropamide]
[1]
  Raw Signal: 58549
[2]
  Z-score: 0.112

## CN(C)CCCN1c2ccccc2CCc2ccccc21 [Imipramine hydrochloride]
[1]
  Raw Signal: 53704
[3]
  Z-score: -0.1159

## O=C(O)c1cc([N+](=O)[O-])ccc1NCCCc1ccccc1
  Raw Signal: 51963
  Z-score: -0.4084

## CC[C@@H]1C(=O)OC[C@@H]1Cc1cncn1C.Cl [(+)-Pilocarpine hydrochloride]
[6]
  Raw Signal: 57845
[7]
  Z-score: 0.5799

## COC(=O)c1c(-c2cc(OC)c(OC)c(OC)c2)c2ccc(OCc3ccccn3)cc2c(=O)n1-c1ccc(N)cc1.O=S(=O)(O)O [T-1032]
[1]
  Raw Signal: 55393
[3]
  Z-score: -0.1226

## N[C@]1(C(=O)O)CC[C@H](C(=O)O)C1 (racemic) [trans-(±)-ACPD]
[1]
  Raw Signal: 56973
[3]
  Z-score: -0.1656

## Cc1cn([C@H]2C=C[C@@H](CO)O2)c(=O)[nH]c1=O [2 ,3 -didehydro-3 -deoxythymidine]
[1]
  Raw Signal: 54462
[3]
  Z-score: -0.1432

## O=[N+]([O-])c1cc2nc(O)c(O)nc2cc1[N+](=O)[O-] [DNQX]
[4]
  Raw Signal: 50774
[5]
  Z-score: -0.8922

## CC(=O)NCCc1c[nH]c2ccccc12 [N-Acetyltryptamine]
[4]
  Raw Signal: 53398
[5]
  Z-score: -0.7952

## CNC(=O)Oc1ccc2c(c1)[C@]1(C)CCN(C)[C@@H]1N2C [(-)-Physostigmine]
[4]
  Raw Signal: 62569
[8]
  Z-score: 1.503

## O=c1c(O)c(-c2ccc(O)c(O)c2)oc2cc(O)cc(O)c12 [Quercetin dihydrate]
[4]
  Raw Signal: 52548
[5]
  Z-score: -0.6753

## CCCCNc1ccc(C(=O)OCCN(C)C)cc1 [Tetracaine hydrochloride]
[1]
  Raw Signal: 56522
[2]
  Z-score: 0.09679

## CCN1CCC[C@H]1CNC(=O)c1c(OC)ccc(I)c1O [S(-)-IBZM]
[4]
  Raw Signal: 51122
[5]
  Z-score: -0.5497

## CCS(=O)(=O)Nc1cccc(C(=C2CCCCC2)c2cnc[nH]2)c1 [A-315456]
[1]
  Raw Signal: 57716
[2]
  Z-score: -0.03471

## NCCCNCCSP(=O)(O)O [Amifostine]
[4]
  Raw Signal: 55102
[5]
  Z-score: -0.4951

## CS(=O)(=O)O.Cn1cc(C(F)(F)F)nc1-c1ccc(OCC(O)CNCCOc2ccc(O)c(C(N)=O)c2)cc1 (centres unmarked) [CGP 20712A methanesulfonate]
[6]
  Raw Signal: 57129
[7]
  Z-score: 0.3985

## Nc1ncnc2c1nc(Sc1ccc(Cl)cc1)n2C1OC2COP(=O)(O)OC2C1O (stereo in doubt) [8-(4-Chlorophenylthio)-cAMP sodium]
[4]
  Raw Signal: 54805
[5]
  Z-score: -0.5474

## L-Methionine sulfoximine
  Raw Signal: 58334
  Z-score: 0.6621

## O=C(O)[C@H]1C[C@H](C(=O)O)N1 (relative stereo) [trans-Azetidine-2,4-dicarboxylic acid]
[1]
  Raw Signal: 57895
[2]
  Z-score: -0.003188

## COc1ccc2[nH]c3c(c2c1)CCNC3
[4]
  Raw Signal: 69821
[8]
  Z-score: 2.097

## CCCC(CCC)C(=O)O [Valproic acid sodium]
[4]
  Raw Signal: 64941
[8]
  Z-score: 1.772

## COCCc1ccc(OCC(O)CNC(C)C)cc1.O=C(O)C(O)C(O)C(=O)O (racemic) [(±)-Metoprolol (+)-tartrate]
[6]
  Raw Signal: 61286
[7]
  Z-score: 1.158

## S(-)-UH-301 hydrochloride
[1]
  Raw Signal: 55198
[3]
  Z-score: -0.1604

## CCc1c(C(=O)OC)ncc2[nH]c3cc(OC)c(OC)cc3c12
[6]
  Raw Signal: 57006
[7]
  Z-score: 0.3735

## CCOC(=O)[N-]c1cn(N2CCOCC2)n[o+]1 [Molsidomine]
[6]
  Raw Signal: 60839
[7]
  Z-score: 1.083

## N[C@@H](CS(=O)O)C(=O)O [L-Cysteinesulfinic Acid]
[1]
  Raw Signal: 57943
[2]
  Z-score: 0.005266

## OC[C@H]1NC[C@@H](O)[C@@H]1O [1,4-Dideoxy-1,4-imino-D-arabinitol]
[1]
  Raw Signal: 54688
[3]
  Z-score: -0.09729

## CC1(C)CCC(NC(=O)[C@@H](N)CCC(=O)O)CC1 [CR 2249]
[1]
  Raw Signal: 52015
[3]
  Z-score: -0.3997

## O=C(O)CN(CCOCCOCCN(CC(=O)O)CC(=O)O)CC(=O)O
  Raw Signal: 55582
  Z-score: 0.08428

## COc1ccc2c(c1OC)C(=O)OC2C1c2cc3c(cc2CCN1C)OCO3 (single isomer, unassigned; (+)) [(+)-Hydrastine]
[1]
  Raw Signal: 55977
[2]
  Z-score: 0.1645

## N[C@@H](Cc1ccc(F)cc1)C(=O)O [p-Fluoro-L-phenylalanine]
[1]
  Raw Signal: 55466
[2]
  Z-score: 0.06072

## CC(C)N(CCC(=O)c1ccc2ccccc2c1)Cc1ccccc1.Cl [ZM 39923 hydrochloride]
[1]
  Raw Signal: 54461
[2]
  Z-score: 0.01134

## Cl.NC1(C(=O)O)CCCCC1
[4]
  Raw Signal: 53186
[5]
  Z-score: -0.8326

## COc1cc2c(CCNC(C)=O)c[nH]c2cc1O [6-Hydroxymelatonin]
[4]
  Raw Signal: 52038
[5]
  Z-score: -0.6355

## COc1ccc(Cc2nccc3cc(OC)c(OC)cc23)cc1OC [Papaverine hydrochloride]
[6]
  Raw Signal: 61808
[7]
  Z-score: 1.246

## CC(C)[C@@H]1NC(=O)[C@H](CCCCN)NC(=O)[C@@H](Cc2c[nH]c3ccccc23)NC(=O)[C@H](Cc2ccc(O)cc2)NC(=O)[C@H](C)N(C)C(=O)[C@H](Cc2ccccc2)NC1=O [Seglitide]
[1]
  Raw Signal: 55030
[3]
  Z-score: -0.1931

## Nc1nccc2c1ncn2[C@@H]1O[C@H](CO)[C@@H](O)[C@H]1O [3-deazaadenosine]
[4]
  Raw Signal: 51727
[5]
  Z-score: -0.6986

## CCCCCCC(C(C)O)n1cnc2c(N)ncnc21.Cl (centres unmarked)
[4]
  Raw Signal: 51235
[5]
  Z-score: -0.7986

## C=CC[C@H](N)C(=O)O [L-allylglycine]
[1]
  Raw Signal: 58984
[2]
  Z-score: 0.1886

## CC[C@H](CO)Nc1nc(NCc2ccccc2)c2ncn(C(C)C)c2n1 [Roscovitine]
[1]
  Raw Signal: 54754
[3]
  Z-score: -0.2467

## C=C(C)[C@H]1CC=C(C(=O)O)CC1 [(-)-Perillic acid]
[6]
  Raw Signal: 58838
[7]
  Z-score: 0.5467

## CCCC(C)(COC(N)=O)COC(=O)NC(C)C (centres unmarked) [Carisoprodol]
[6]
  Raw Signal: 61112
[7]
  Z-score: 0.5634

## CN[C@H](CC(=O)O)C(=O)O [N-Methyl-D-aspartic acid]
[6]
  Raw Signal: 57133
[7]
  Z-score: 0.4603

## C[C@@H]1O[C@@H](O[C@H]2C[C@@H](O)[C@]3(CO)[C@H]4[C@H](O)C[C@]5(C)[C@@H]([C@@H]6COC(=O)C6)CC[C@]5(O)[C@@H]4CC[C@]3(O)C2)[C@H](O)[C@H](O)[C@H]1O [Dihydroouabain]
[4]
  Raw Signal: 48437
[5]
  Z-score: -1.3668

## CC12CC3CC(C)(C1)CC(N)(C3)C2 [Memantine hydrochloride]
[1]
  Raw Signal: 56169
[2]
  Z-score: 0.2983

## O=c1[nH]c2cc(Cl)c(Cl)cc2[nH]c1=O [6,7-Dichloroquinoxaline-2,3-dione]
[1]
  Raw Signal: 56553
[2]
  Z-score: 0.2815

## CN(C)CCC=C1c2ccccc2C=Cc2ccccc21 [Cyclobenzaprine hydrochloride]
[6]
  Raw Signal: 63136
[7]
  Z-score: 0.9199

## CC(C)(C)NC[C@H](O)COc1nsnc1N1CCOCC1.O=C(O)/C=C\C(=O)O [S(-)-Timolol maleate]
[1]
  Raw Signal: 57221
[2]
  Z-score: 0.2326

## CCN(CC)CCOC(=O)c1ccc(N)cc1 [Procaine hydrochloride]
[6]
  Raw Signal: 61379
[7]
  Z-score: 1.04

## CNC[C@H](O)c1cccc(O)c1 [Phenylephrine hydrochloride]
[1]
  Raw Signal: 56055
[2]
  Z-score: 0.2792

## CP(=O)(O)CCCN.Cl [SKF 97541 hydrochloride]
[1]
  Raw Signal: 57179
[3]
  Z-score: -0.1293

## CCCN(CCC)C(=O)C(CCC(=O)O)NC(=O)c1ccccc1 (centres unmarked) [Proglumide]
[1]
  Raw Signal: 53192
[3]
  Z-score: -0.2019

## C[C@@H]1O[C@H](C[N+](C)(C)C)CS1.[I-] [OXA-22 iodide]
[6]
  Raw Signal: 57438
[7]
  Z-score: 0.4612

## O=C1CCC(N2C(=O)c3ccccc3C2=O)C(=O)N1 (racemic) [(±)-Thalidomide]
[1]
  Raw Signal: 54848
[3]
  Z-score: -0.2284

## O=c1[nH]c2ccccc2n1C1CCN(CCCC(c2ccc(F)cc2)c2ccc(F)cc2)CC1 [Pimozide]
[1]
  Raw Signal: 53926
[2]
  Z-score: -0.07855

## CCOC(=O)[C@]12CC1/C(=N\O)c1ccccc1O2 (mixture of isomers) [CPCCOEt]
[1]
  Raw Signal: 59801
[2]
  Z-score: 0.3325

## CC(C)(C)c1ccc(C(O)CCCN2CCC(C(O)(c3ccccc3)c3ccccc3)CC2)cc1 (centres unmarked) [Terfenadine]
[1]
  Raw Signal: 53926
[3]
  Z-score: -0.4076

## CCN(CC)CCCCCCCCOC(=O)c1cc(OC)c(OC)c(OC)c1.Cl [TMB-8 hydrochloride]
[1]
  Raw Signal: 59541
[2]
  Z-score: 0.2867

## Oc1ccc(Cn2cc[nH]c2=S)cc1 [1-(4-Hydroxybenzyl)imidazole-2-thiol]
[4]
  Raw Signal: 52381
[5]
  Z-score: -0.5658
